Where “and” joins values, the source holds several entries; their conditions need not be identical. Equal entries are not always repeated. Toxic doses and inconclusive results are not listed. No stated cut-off is given here; in the data, active means T/C of 150% or more; inactive means T/C below 125%. Square brackets hold non-standard residues; d marks the D form. Peptide text beside a SMILES is read from it. * marks the point of attachment. ξ: configuration not given here. Cbz = O=C(OCc1ccccc1)*; ξS = NC(CO)C(=O)O
System: L1210 leukemia ip in BDF1 mice, survival T/C
Test: NCI In Vivo Anticancer Drug Screen. Data for tumor model L1210 Leukemia (intraperitoneal) in B6D2F1 (BDF1) mice
Settings: endpoint: mean survival time, higher = longer survival
Procedure, shortened: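 Transplanted-tumor mice were given test agent; controls received vehicle only. Survival readings from the two groups were divided (treated over control).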

[1] = dose: 100.0 mg/kg/injection, schedule: Q01DX009 (ip), vehicle: Klucel (hydroxypropylcellulose) (HPC)
[2] = dose: 200.0 mg/kg/injection, schedule: Q01DX009 (ip), vehicle: Klucel (hydroxypropylcellulose) (HPC)
[3] = dose: 400.0 mg/kg/injection, schedule: Q01DX009 (ip), vehicle: Klucel (hydroxypropylcellulose) (HPC)
[4] = dose: 100.0 mg/kg/injection, schedule: Q04DX003 (ip), vehicle: Klucel (hydroxypropylcellulose) (HPC)
[5] = dose: 200.0 mg/kg/injection, schedule: Q04DX003 (ip), vehicle: Klucel (hydroxypropylcellulose) (HPC)
[6] = dose: 50.0 mg/kg/injection, schedule: Q01DX009 (ip), vehicle: Klucel (hydroxypropylcellulose) (HPC)
[7] = dose: 100.0 mg/kg/injection, schedule: Q01DX001 (ip), vehicle: Klucel (hydroxypropylcellulose) (HPC)
[8] = dose: 200.0 mg/kg/injection, schedule: Q01DX001 (ip), vehicle: Klucel (hydroxypropylcellulose) (HPC)
[9] = dose: 400.0 mg/kg/injection, schedule: Q01DX001 (ip), vehicle: Klucel (hydroxypropylcellulose) (HPC)
[10] = dose: 100.0 mg/kg/injection, schedule: Q01DX009 (ip), vehicle: saline with Tween-80
[11] = dose: 200.0 mg/kg/injection, schedule: Q01DX009 (ip), vehicle: saline with Tween-80
[12] = dose: 400.0 mg/kg/injection, schedule: Q01DX009 (ip), vehicle: saline with Tween-80
[13] = dose: 100.0 mg/kg/injection, schedule: Q01DX001 (ip), vehicle: saline
[14] = dose: 200.0 mg/kg/injection, schedule: Q01DX001 (ip), vehicle: saline
[15] = dose: 100.0 mg/kg/injection, schedule: Q04DX003 (ip), vehicle: saline with Tween-80
[16] = dose: 200.0 mg/kg/injection, schedule: Q04DX003 (ip), vehicle: saline with Tween-80

Measured: T/C

C[n+]1ccc2ccccc2c1CCCc1nccc2ccccc12
inactive: dose: 6.25 mg/kg/injection, schedule: Q01DX009 (ip), vehicle: saline with Tween-80 111 % of control | dose: 6.25 mg/kg/injection, schedule: Q04DX003 (ip), vehicle: saline 97 % of control | dose: 12.5 mg/kg/injection, schedule: Q01DX009 (ip), vehicle: saline with Tween-80 117 % of control | dose: 12.5 mg/kg/injection, schedule: Q04DX003 (ip), vehicle: saline 100 % of control | dose: 25.0 mg/kg/injection, schedule: Q01DX009 (ip), vehicle: saline with Tween-80 112 % of control | dose: 25.0 mg/kg/injection, schedule: Q04DX003 (ip), vehicle: saline 114 % of control

O=C(Nc1ccccc1F)Oc1ccc2ccccc2c1
inactive: [1] 106 % of control | [2] 107 % of control | [3] 103 % of control

O=C(Nc1ncc([N+](=O)[O-])s1)c1ccccc1Oc1ccccc1
inactive: dose: 100.0 mg/kg/injection, schedule: Q04DX002 (ip), vehicle: Klucel (hydroxypropylcellulose) (HPC) 102 % of control | dose: 200.0 mg/kg/injection, schedule: Q04DX002 (ip), vehicle: Klucel (hydroxypropylcellulose) (HPC) 115 % of control | dose: 400.0 mg/kg/injection, schedule: Q04DX002 (ip), vehicle: Klucel (hydroxypropylcellulose) (HPC) 100 % of control

CSc1cccc(Cl)c1
inactive: dose: 75.0 mg/kg/injection, schedule: Q01DX001 (ip), vehicle: saline 100 % of control | dose: 150.0 mg/kg/injection, schedule: Q01DX001 (ip), vehicle: saline 101 % of control

OC(Nc1ncccn1)C(Cl)(Cl)Cl (stereo not drawn)
inactive: dose: 100.0 mg/kg/injection, schedule: Q01DX009 (ip), vehicle: saline sonified 96 % of control | [4] 95 % of control | dose: 200.0 mg/kg/injection, schedule: Q01DX009 (ip), vehicle: saline sonified 94 % of control | [5] 102 % of control | dose: 400.0 mg/kg/injection, schedule: Q01DX009 (ip), vehicle: saline sonified 89 % of control | dose: 400.0 mg/kg/injection, schedule: Q04DX003 (ip), vehicle: Klucel (hydroxypropylcellulose) (HPC) 101 % of control

O=Cc1ccc(N2CCOCC2)cc1
inactive: [6] 97 % of control | [1] 97 % of control | [2] 106 % of control | [3] 97 % of control

c1ccc([P+](c2ccccc2)(c2ccccc2)c2ccccc2)cc1
inactive: dose: 2.5 mg/kg/injection, schedule: Q01DX009 (ip), vehicle: saline 110 % of control | dose: 2.5 mg/kg/injection, schedule: Q04DX003 (ip), vehicle: saline 103 % of control | dose: 5.0 mg/kg/injection, schedule: Q01DX001 (ip), vehicle: saline 110 % of control | dose: 5.0 mg/kg/injection, schedule: Q01DX009 (ip), vehicle: saline 114 % of control | dose: 5.0 mg/kg/injection, schedule: Q04DX003 (ip), vehicle: saline 106 % of control | dose: 10.0 mg/kg/injection, schedule: Q01DX001 (ip), vehicle: saline 94 % of control | dose: 10.0 mg/kg/injection, schedule: Q04DX003 (ip), vehicle: saline 109 % of control

CCOC(=S)c1ccc(S(=O)(=O)Nc2cccc3ccccc23)cc1
inactive: [7] 97 % of control | [8] 98 % of control | [9] 95 % of control

C=CCSc1ccc([N+](=O)[O-])cc1
inactive: dose: 50.0 mg/kg/injection, schedule: Q01DX001 (ip), vehicle: carboxymethylcellulose (CMC) 101 % of control | dose: 100.0 mg/kg/injection, schedule: Q01DX001 (ip), vehicle: carboxymethylcellulose (CMC) 95 % of control | dose: 200.0 mg/kg/injection, schedule: Q01DX001 (ip), vehicle: carboxymethylcellulose (CMC) 104 % of control | dose: 400.0 mg/kg/injection, schedule: Q01DX001 (ip), vehicle: carboxymethylcellulose (CMC) 98 % of control

O=C1C=CC(=Nc2ccc(Cl)cc2)O1
inactive: [10] 104 % of control | [11] 102 % of control | [12] 97 % of control

CC(Cc1ccccc1)NC(=O)CCNNC(=O)c1ccncc1 (stereo not drawn)
inactive: dose: 12.5 mg/kg/injection, schedule: Q01DX009 (ip), vehicle: Klucel (hydroxypropylcellulose) (HPC) 96 % of control | dose: 25.0 mg/kg/injection, schedule: Q01DX009 (ip), vehicle: Klucel (hydroxypropylcellulose) (HPC) 100 % of control | [6] 103 % of control | dose: 50.0 mg/kg/injection, schedule: Q04DX003 (ip), vehicle: Klucel (hydroxypropylcellulose) (HPC) 98 % of control | [1] 100 % of control | [4] 96 % of control | [2] 91 % of control | [5] 88 % of control

Cc1ccc(S(=O)(=O)/N=C2\SCc3ccccc32)cc1
inactive: dose: 12.5 mg/kg/injection, schedule: Q01DX009 (ip), vehicle: saline 108 % of control | dose: 25.0 mg/kg/injection, schedule: Q01DX009 (ip), vehicle: saline 105 % of control | dose: 50.0 mg/kg/injection, schedule: Q01DX009 (ip), vehicle: saline 94 % of control and 101 % of control | [7] 94 % of control | [8] 88 % of control | [9] 98 % of control

C=CCOc1cc[n+]([O-])cc1
inactive: [13] 100 % of control | [14] 105 % of control

Cc1ccc(C)c2c1[nH]c1c(C)c3ccncc3c(C)c12
inactive: dose: 25.0 mg/kg/injection, schedule: Q01DX Z (ip), vehicle: saline 103 % of control | dose: 50.0 mg/kg/injection, schedule: Q01DX Z (ip), vehicle: saline 103 % of control | [13] 100 % of control | dose: 100.0 mg/kg/injection, schedule: Q01DX Z (ip), vehicle: saline 112 % of control | [14] 96 % of control | dose: 400.0 mg/kg/injection, schedule: Q01DX001 (ip), vehicle: saline 103 % of control

CC(=S)Nc1ccc2ccccc2c1
inactive: [10] 94 % of control | [15] 101 % of control | [11] 94 % of control | [16] 104 % of control | [12] 109 % of control | dose: 400.0 mg/kg/injection, schedule: Q04DX003 (ip), vehicle: saline with Tween-80 101 % of control

C#CCI
inactive: dose: 37.5 mg/kg/injection, schedule: Q04DX003 (ip), vehicle: Klucel (hydroxypropylcellulose) (HPC) 108 % of control | dose: 75.0 mg/kg/injection, schedule: Q04DX003 (ip), vehicle: Klucel (hydroxypropylcellulose) (HPC) 100 % of control | dose: 150.0 mg/kg/injection, schedule: Q04DX003 (ip), vehicle: Klucel (hydroxypropylcellulose) (HPC) 103 % of control

O=C(CCN1CC1)Nc1ccc(Cc2ccc(NC(=O)CCN3CC3)cc2)cc1
inactive: dose: 20.0 mg/kg/injection, schedule: Q04DX003 (ip), vehicle: Klucel (hydroxypropylcellulose) (HPC) 101 % of control | dose: 40.0 mg/kg/injection, schedule: Q04DX003 (ip), vehicle: Klucel (hydroxypropylcellulose) (HPC) 117 % of control | dose: 80.0 mg/kg/injection, schedule: Q04DX003 (ip), vehicle: Klucel (hydroxypropylcellulose) (HPC) 106 % of control

Nc1cccc(CCc2nc(N)nc(N)c2-c2ccc(Cl)c(Cl)c2)c1
inactive: dose: 100.0 mg/kg/injection, schedule: Q01DX001 (ip), vehicle: saline with Tween-80 95 % of control | dose: 200.0 mg/kg/injection, schedule: Q01DX001 (ip), vehicle: saline with Tween-80 109 % of control | dose: 400.0 mg/kg/injection, schedule: Q01DX001 (ip), vehicle: saline with Tween-80 109 % of control

COC(=O)C(CO)NC(=O)CNC(=O)OCc1ccccc1 (stereo not drawn) (Cbz-Gly-[ξS]-OMe)
inactive: dose: 100.0 mg/kg/injection, schedule: Q04DX003 (ip), vehicle: water 98 % of control | dose: 200.0 mg/kg/injection, schedule: Q04DX003 (ip), vehicle: water 94 % of control | dose: 400.0 mg/kg/injection, schedule: Q04DX003 (ip), vehicle: water 96 % of control

S=C(NCc1ccccc1)Nc1ccccc1
inactive: [15] 96 % of control | [16] 94 % of control

— PubChem BioAssay AID248 (DTP/NCI, 2004)
